These results are taken from patent publication US12178840B2, “Method and compositions comprising a CT20 peptide” (UNIVERSITY OF CENTRAL FLORIDA RESEARCH FOUNDATION, INC., priority 2014, dated 2024).

Residues, ends and D or L forms follow the SMILES beside them.

Holding throughout (type): cell-based, human
Series [1] deals with tubulin in MDA-MB-231 cells. Nature of the series: Fixed cell immunofluorescence of tubulin. The conditions noted are these: 24 hours of CT20p treatment. The method, then: Fixed cell immunofluorescence: Cells were seeded on glass coverslips (Fisher) in a 6-well plate at a density of 150,000 cells/well. Cells at 60% confluency were treated with CT20p or left untreated for 24 hours. After CT20p treatment, cells were stained with Mitotracker Red CMXRos (Life Technologies) at a concentration of 200 nM for 30 minutes, before being fixed in ice cold methanol for 10 minutes at −20° C. Cells were then permeabilized in 0.1% Triton X-100 for 10 minutes at 37° C. Samples were blocked in 5% normal goat serum (Santa Cruz) for 30 minutes at 37° C., then incubated with primary antibody α-tubulin (DM1A) (Santa Cruz) for 3 hours at 37° C. Secondary antibody was goat α-mouse IgG-FITC (Santa Cruz) and was applied for 1 hour at room temperature. Coverslips were mounted in UltraCruz mounting media (Santa Cruz), which contains DAPI for nuclear staining. Images were obtained with a Zeiss LSM 710 microscope, using a Zeiss 63× Pan-Apocromat oil immersion lens and Zeiss Zen software. To determine average tubulin levels per cell, the amount of FITC fluorescence intensity per region of interest was divided by the number of cells in the field. At least four images containing between 5 and 12 cells were quantified for each condition. Image analysis was done using Volocity software (Perkin Elmer).
CT20p's effect on the other main client of CCT, tubulin, was also examined. […]

In series [2] the test system is TNBC cell lines and MCF-10A. Nature of the series: Metabolic stress tests (Seahorse, oxygen consumption and extracellular acidification). The conditions noted are these: 75 ug/mL for 24 hours before the assay. The method, then:
Measurement of oxygen consumption and extracellular acidification: 24-well culture plates for use with the Seahorse XFe24 analyzer were coated with Cell-Tak (BD Bioscience) at 3.5 ug/cm2. Cells were then seeded at 60,000 cells/well and allowed to adhere overnight. Measurements of oxygen consumption rate and extracellular acidification rate were obtained using a Seahorse XFe 24 analyzer (Seahorse Bioscience). To obtain mitochondrial metabolic profiles, injections of oligomycin (1 uM), FCCP (0.3 uM), rotenone (0.1 uM), and antimycin A (2 uM) were performed. The mitochondrial coupling efficiency was calculated as: [1−(minimum oligomycin response/final basal measurement)]×100. To obtain glycolytic metabolic profiles, injections of glucose (10 mM), oligomycin (1 uM), and 2-deoxy-D-glucose (100 mM) were performed. Glycolytic reserve capacity was calculated as: maximum oligomycin response−maximum glucose response. […] Metabolic capacity was defined as the maximum recorded measurement in both mitochondrial and glycolytic contexts. CT20p-treated results were calculated as a percentage of untreated results.
The effect of CT20p on cellular metabolism was also examined by pre-treating the cells with CT20p prior to running metabolic stress tests. Glycolytic capacity (FIG. 6C) and respiration capacity (FIG. 6F) were calculated for treated cells with respect to untreated cells.

Series [3] relates to MDA-MB-231 cells. As to the kind of experiment: Cellular adhesion assay (fibronectin, crystal violet). The conditions noted are these: 48 hours, varying doses. The method, then: (§1) Cellular adhesion assay: 96-well tissue culture plates were coated with 20 ug/mL fibronectin (Sigma) overnight at 4° C. Cells were then seeded in the plates at a density of 10,000 cells/well. Cells were treated with varying doses of CT20p for 48 hours. Plates were then shaken at 1400 rpm for 15 seconds, washed, and fixed with 10% neutral buffered formalin (Leica). Adhered cells were stained with 5 mg/mL crystal violet (Sigma) and absorbance at 595 nm was read on an EnVision plate reader (Perkin Elmer).
(§2) The effect of CT20p was examined on a panel of cell lines by measuring the impact on cellular adhesion. Metastatic cells vary their adhesion patterns as dictated by their environment (Cheung and Ewald 2014), and targeting adhesion ability could mitigate metastasis. To examine the cell lines, plates were coated with fibronectin to provide an appropriate substrate for adhesion, and cells were treated with CT20p for 48 hours at varying doses (FIG. 5A). […] Treating at this dose would allow us to observe the molecular effects of the peptide prior to cell death.

In series [4] the test system is MCF-10A cells. Described as above. The method, then: as §1, §2
Series [5] concerns MDA-MB-436 cells. The series is described as above. To be noted: 48 hours, varying doses. The method, then: as §1, §2
The test system of series [6] is BT-549 cells. The series is described as above. The conditions noted are these: 48 hours, varying doses. The method, then:
as §1, §2

For the molecule `CC[C@H](C)[C@H](NC(=O)[C@@H](NC(=O)[C@H](CC(C)C)NC(=O)[C@H](CO)NC(=O)[C@H](C)NC(=O)[C@@H](NC(=O)[C@H](CC(C)C)NC(=O)[C@@H](NC(=O)CNC(=O)[C@H](C)NC(=O)[C@@H](NC(=O)[C@H](Cc1ccccc1)NC(=O)[C@@H](NC(=O)[C@@H](NC(=O)[C@@H](NC(C)=O)C(C)C)[C@@H](C)O)[C@@H](C)CC)C(C)C)C(C)C)[C@@H](C)O)[C@@H](C)O)C(=O)N[C@@H](Cc1c[nH]c2ccccc12)C(=O)N[C@@H](CCCCN)C(=O)N[C@@H](CCCCN)C(=O)N[C@@H](CCSC)C(=O)NCC(N)=O` [CT20] (Ac-VTIFVAGVLTASLTIWKKMG-NH2), the “Amount of tubulin per cell” value in series [1] is reported as “significant decrease”. Further, the “Metabolic responses (glycolytic capacity, respiration capacity) that could explain the cytotoxicity pattern” value in series [2] is given as “None of the cell lines displayed metabolic responses”. Also, the “Effect on cellular adhesion” value in series [3] is “dose-dependent loss of adhesion”; in series [4] (48 hours, varying doses, fibronectin), “particularly unaffected”; in series [5], “dose-dependent loss of adhesion”; in series [6] it was “particularly unaffected”. Also, the Detachment of cells result in series [4] (75 μg/mL of CT20p) is listed as “does not cause detachment”.
